Measurements: patent US8546416B2, “3-spirocyclic piperidine derivatives as ghrelin receptor agonists” (Novartis AG, priority 2011, dated 2013)

What was measured:
[1] = Aqueous solubility of crystalline L-malate salt forms compared to free base amorphous form; type: physicochemical; details: crystalline L-malate salt compared to the free base amorphous form
[2] = molecular target: T1, human recombinant ghrelin receptor (GHS-R1a) (Homo sapiens, UniProt Q92847); assay: hGHS-R1a Ca assay (Fluo-4 calcium assay in CHO-K1 cells); type: cell-based; details: CHO-K1 cells expressing human GHS-R1a; agonist dose response up to 30 μM
T1 construct: host or cells: CHO-K1
Description: (§1) Chinese hamster ovary (CHO-K1) cells expressing human recombinant ghrelin receptor (GHS-R1a) were purchased from Euroscreen (ES-410-C) and propagated in UltraCHO medium containing glutamine and supplemented with 1% heat inactivated foetal calf serum (FCS), 100 U/ml penicillin, 100 mg/l streptomycin and 0.8 g/l geneticin. Cells were sub-cultured twice a week with a 1:10 dilution. For passaging, cells were washed with 1×DPBS without calcium and magnesium, trypsinised for 10 min with 0.05% Trypsin/EDTA and resuspended in cell culture medium.
Cells were diluted to achieve 1×10^6 cells/ml, seeded in 384-well black clear bottom CellBind plates at 25000 cells/well (25 ul) and incubated overnight at 37° C./5% CO2 Cells were expected to be 85-90% confluent on the day of assay (checked under the microscope) to ensure a high quality assay. Media was manually removed and 40 μl of loading solution containing probenecid and Fluo-4 no wash dye (a calcium indicator, Invitrogen F36206) were added to each well. After 30 min at 37° C. followed by another 30 min at RT, cpds were added to the wells. To generate a dose response up to 30 μM, 10 mM compound stocks in 100% (v/v) DMSO were firstly diluted in 50% (v/v) DMSO. Then, serial dilutions aimed at a full logarithmic dose responses (8 point) were performed in assay buffer [1×HBSS, 20 mM Hepes, 0.1% (w/v) BSA] to give 2.5% (v/v) DMSO and 5× final compound concentrations. The final assay DMSO concentration was 0.5% (v/v). After loading the cells with Fluo-4 containing solution, plates were read on a CellLux instrument (Perkin Elmer). A protocol set up to add 10 μl of 5× compound and to read the plate for 60 sec after adding the compound at 17th sec was used. Fluorescence excitation took place at 494 nm and emission at 516 nm. EC50 values of agonists were calculated by fitting the percent stimulation over background [(Max−Min)/Min] using the nonlinear logistic function of the Prism 5 software (GraphPad, USA).

[3] = molecular target: T1, human recombinant ghrelin receptor (GHS-R1a); assay: hGHS-R1a cAMP assay (HTRF cAMP dynamic 2 kit, CHO-hGHS-R1a cells); type: cell-based; details: 60 min incubation, dose response up to 30 μM
Description: as §1
The Homogeneous Time-Resolved Fluorescence (HTRF) cAMP dynamic 2 kit (Cisbio International, France) was used as follows. CHO-hGHS-R1a or CHO-rGHS-R1a cells were seeded in a volume of 25 μl culture media at 10,000 cells/well (400,000 cells/ml) in Greiner white 384-well high volume plates and incubated overnight (18-24 h) at 37° C./5% CO2. Then, media was removed and 6 μl assay buffer [HBSS, 10 mM Hepes, 0.2% (w/v) BSA, 1.7 mM IBMX, (pH7.4)] were added to the wells. To generate a dose response up to 30 μM, 10 mM compound stocks in 100% (v/v) DMSO were firstly diluted in 50% (v/v) DMSO followed by a further dilution into assay buffer. Then, 4 μl of 2.5× compound (dose response as 9 point log serial dilution in assay buffer from 30 μM as maximum concentration) were added to each well achieving a final DMSO assay concentration of 0.8% (v/v). 0.1 μM forskolin was added as positive control. After 30 min (rGHS-R1a cell line) or 60 min (hGHS-R1a cell line) incubation at 37° C./5% CO2, 5 μl of cAMP-d2 and 5 μl of anti-cAMP antibody-cryptate, (both made in lysis buffer), were added to the plate followed by 1 h incubation at RT. During this time, cAMP produced by the cells competed with cAMP-d2 for the anti-cAMP antibody-cryptate molecule. Then, the plate was read on the Pherastar instrument (BMG, Germany) at two different emission wavelengths (620 and 650 nm). Increasing levels of endogenous cAMP produced by cells could be followed by a decrease of FRET fluorescent signal and viceversa. Values represented by a change in arbitrary fluorescence ratios (665/620) were converted into cAMP concentrations by using a standard curve, the reagents for which were supplied with the kit. EC50 values of agonists were calculated using the nonlinear logistic function of the Prism 5 software (GraphPad, USA). Emax were expressed as relative values of the ghrelin response, which was defined as 100%.

T1 sequence (Q92847 whole entry): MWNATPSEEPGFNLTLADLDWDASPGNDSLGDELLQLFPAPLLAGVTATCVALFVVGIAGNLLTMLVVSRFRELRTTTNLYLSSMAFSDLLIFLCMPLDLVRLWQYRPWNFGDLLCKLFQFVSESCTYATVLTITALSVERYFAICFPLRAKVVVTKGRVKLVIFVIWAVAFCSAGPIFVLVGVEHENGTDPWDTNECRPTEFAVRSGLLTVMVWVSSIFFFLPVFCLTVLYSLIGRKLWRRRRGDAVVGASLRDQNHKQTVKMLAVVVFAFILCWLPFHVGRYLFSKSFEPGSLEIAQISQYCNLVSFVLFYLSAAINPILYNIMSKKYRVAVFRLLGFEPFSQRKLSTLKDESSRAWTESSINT

aqueous solubility [1] | EC50 [2] | EC50 [3] | SMILES
increased aqueous solubility |  |  | CN1C[C@@H](c2ccccc2)[C@@]2(CCCN(C(=O)[C@@H](COCc3ccccc3)NC(=O)C(C)(C)N)C2)C1=O.O=C(O)C[C@H](O)C(=O)O [2-Amino-N-[(R)-1-benzyloxymethyl-2-((4S,5R)-2-methyl-1-oxo-4-phenyl-2,7-diaza-spiro[4.5]dec-7-yl)-2-oxo-ethyl]-2-methyl-propionamide L-malate salt]
increased aqueous solubility |  |  | Cc1ccc(C2CN(C)C(=O)C23CCCN(C(=O)[C@@H](COCc2ccccc2)NC(=O)C(C)(C)N)C3)cc1.O=C(O)C[C@H](O)C(=O)O (stereo partly drawn) [2-amino-N-((2R)-3-(benzyloxy)-1-(2-methyl-1-oxo-4-p-tolyl-2,7-diazaspiro[4.5]decan-7-yl)-1-oxopropan-2-yl)-2-methylpropanamide L-malate salt]
increased aqueous solubility |  |  | CN1C[C@@H](c2ccc(F)cc2)[C@@]2(CCCN(C(=O)[C@@H](COCc3ccccc3)NC(=O)C(C)(C)N)C2)C1=O.O=C(O)C[C@H](O)C(=O)O [2-amino-N-((2R)-3-(benzyloxy)-1-((4S,5R)-4-(4-fluorophenyl)-2-methyl-1-oxo-2,7-diazaspiro[4.5]decan-7-yl)-1-oxopropan-2-yl)-2-methylpropanamide L-malate salt]
 | 0.0054 µM | 1.14 µM | CCC(N)(CC)C(=O)N[C@H](COCc1ccccc1)C(=O)N1CCC[C@@]2(C1)C(=O)N(C)C[C@H]2c1ccccc1 [Example 1.71, 2-amino-N-((R)-3-(benzyloxy)-1-((4S,5R)-2-methyl-1-oxo-4-phenyl-2,7-diazaspiro[4.5]decan-7-yl)-1-oxopropan-2-yl)-2-ethylbutanamide]
 | 0.005 µM | 2.56 µM | Cc1ccc(COC[C@@H](NC(=O)C(C)(C)N)C(=O)N2CCCC3(C2)C(=O)N(C)CC3c2ccc(F)cc2)cc1 (stereo partly drawn) [Example 1.72, 2-amino-N-((2R)-1-(4-(4-fluorophenyl)-2-methyl-1-oxo-2,7-diazaspiro[4.5]decan-7-yl)-3-((4-methylbenzyl)oxy)-1-oxopropan-2-yl)-2-methylpropanamide]
 | 3.32 µM | ≥ 30 µM | CN1CC(c2ccccc2)C2(CCCN(C(=O)[C@@H](COCc3ccccc3)NC(=O)C(C)(N)C(F)(F)F)C2)C1=O (stereo partly drawn) [Example 1.73, 2-amino-N-((2R)-3-(benzyloxy)-1-(2-methyl-1-oxo-4-phenyl-2,7-diazaspiro[4.5]decan-7-yl)-1-oxopropan-2-yl)-3,3,3-trifluoro-2-methylpropanamide]
 | 0.0054 µM | 5.9 µM | COc1ccc(C2CN(C)C(=O)C23CCCN(C(=O)[C@@H](COCc2ccccc2)NC(=O)C(C)(C)N)C3)cc1 (stereo partly drawn) [Example 1.74, 2-amino-N-((2R)-3-(benzyloxy)-1-(4-(4-methoxyphenyl)-2-methyl-1-oxo-2,7-diazaspiro[4.5]decan-7-yl)-1-oxopropan-2-yl)-2-methylpropanamide]
 | 0.0036 µM | 0.302 µM | CC(C)(C)CN1CC(c2ccccc2)C2(CCCN(C(=O)[C@@H](COCc3ccccc3)NC(=O)C(C)(C)N)C2)C1=O (stereo partly drawn) [Example 1.75, 2-amino-N-((2R)-3-(benzyloxy)-1-(2-neopentyl-1-oxo-4-phenyl-2,7-diazaspiro[4.5]decan-7-yl)-1-oxopropan-2-yl)-2-methylpropanamide]
